Measured values reported in publication PMC10390775, “CETP inhibitor evacetrapib enters mouse brain tissue” (Frontiers in Pharmacology, 2023).

Experiments:
[1] = Rapid equilibrium dialysis, plasma on both sides of the membrane; format: in vitro ADME; settings: after 24 h, preliminary data
Excerpt: One last factor we considered in this study was the mechanism by which evacetrapib is transported into brain tissue. To that effect, toxicokinetic parameters were derived from the blood and brain time courses, which indicate that the drug possibly requires some sort of transporter to reach peripheral compartments, such as the brain, and to clear from brain tissue. […] A possible explanation could be that evacetrapib enters the brain faster than it is cleared out of it, leading to a buildup in brain tissue. […] To determine which mechanisms are involved in evacetrapib distribution to the brain, a semi-PBPK model was developed (parameter values are in Table 1; Figure 5). To this end, we first aimed to determine the brain: plasma partition coefficient of evacetrapib using rapid equilibrium dialysis. […] This may be in line with our in vivo observations considering that only a small fraction of evacetrapib crossed the blood–brain barrier. However, the slow diffusion in our in vitro model is incongruent with the concentrations of evacetrapib found in the brain 2.2 h following intravenous injections. Thus, the implication of transporters cannot be excluded.

[2] = Semi-PBPK three-compartment model of distribution to the brain; set-up: species or system mice
Experimental: A semi-physiological-based pharmacokinetic (PBPK) model was developed to obtain more mechanistic information on the distribution of evacetrapib in the brain. First, a two-compartmental model (i.e., a plasma and a peripheral compartment) with a first-order elimination rate was fitted to describe the kinetics of the compound in plasma ([Mukherjee, 2022]) (Figure 1). Second, a third compartment was added and connected to the plasma compartment (Figure 1). The brain compartment was subdivided into vascular and tissue sub-compartments, with mass balance differential equations describing a distribution in the tissue that can be limited by diffusion as follows ([Shen, 2010]): dABrT/dt=PA∙CBrP−PA∙CBrT/PBr, (9) CBrT=ABrT/VBr1−VBrVF, (10) dABrP/dt=QBrCp−CBrP−PA∙CBrP−PA∙CBrT/PBr, (11) CBrP=ABrP/VBr∙VBrVF∙PF, (12) CBr=ABrT+ABrP/VBr, (13) where ABrT is the amount in the brain tissue, ABrP is the amount in the brain plasma, CBrP the concentration in the brain plasma, CBrT the concentration in the brain tissue subcompartment, CBr the concentration in the brain, Cp the plasma concentration, PA the permeability area product, PBr the brain-to-plasma partition coefficient, PF the plasma fraction of the blood, VBrVF the vascular volume fraction of the brain, VBr the volume of the brain, and QBr plasma flow to the brain.
Several scenarios were tested using this semi-PBPK model and brain concentration data to determine the mechanisms that best explain accumulation in the brain: 1) no permeability (i.e., PA = 0 L/h); 2) a perfusion-limited distribution (PA > 1,000,000 L/h) using the predicted PBr ([Poulin and Haddad, 2011]); 3) a perfusion-limited distribution with a low PBr (fitted); 4) a diffusion-limited distribution (fitted PA) using the predicted PBr; and 5) diffusion-limited distribution (fitted PA) and low PBr (fitted).
We used a semi-physiological three-compartment model to simulate the in vivo data (Figure 1). The parameters for the plasma and peripheral compartments were fitted to the plasma concentration at 40 mg/kg BW (Table 1; Figure 5B) ([Brown et al., 1997]; [Peyret et al., 2010]). Then, four scenarios were simulated assuming the following: a) perfusion-limited distribution with the predicted brain-to-plasma partition coefficient (PBr), b) as in a) with a low PBr, c) diffusion-limited distribution with the predicted PBr, and d) as in c) with low PBr, against the brain concentration data corrected for residual blood as explained in the Methods section. When assuming perfusion-limited distribution, the model could not simulate the observed data (Figure 5A), even when we adjusted for PBr. […] Thus, we propose that evacetrapib enters the brain in a diffusion-limited manner, which could include some form of facilitated transport.

[3] = continuous administration; ref Small et al., 2015; Nurmohamed et al., 2022; cited from earlier work
[4] = two-compartment model, fitted to plasma concentration at 40 mg/kg BW

Cc1cc(C)c2c(c1)[C@@H](N(Cc1cc(C(F)(F)F)cc(C(F)(F)F)c1)c1nnn(C)n1)CCCN2C[C@H]1CC[C@H](C(=O)O)CC1 [evacetrapib]
Fraction diffused across the dialysis membrane [1]: 2%
Permeability area product (PA) ([2]; fitted, diffusion-limited distribution): 1.1e-05 L/h
Kp ([2]; male, hCETPtg (C57BL/6J background), mouse, intravenous, 40 mg/kg BW, fitted to brain concentrations corrected for residual blood, read-out: Brain:plasma partition coefficient (PBr)): 0.06
k el ([2]; male, hCETPtg (C57BL/6J background), mouse, intravenous, two-compartment model, fitted to plasma concentration at 40 mg/kg BW, read-out: Elimination constant (Kel) (converted)): 0.000386 s⁻¹
Apparent plasma volume (Vplasma) [2, 4]: 0.01 L
Peripheral to plasma transfer constant (K21) [2, 4]: 1.21 h⁻¹
Plasma to peripheral transfer constant (K12) [2, 4]: 2.4 h⁻¹
Accumulation in adipose tissues [3]: does not accumulate in adipose tissues
